Measured values from PubChem BioAssay (NCI).
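96-well plates; 48 h exposure; 5 concentrations. Endpoints by linear interpolation between flanking doses. Not reached: highest tested concentration assigned. At the TGI there is no net growth.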

Assays:
Test in all cases: NCI anticancer screen, dose series, 48 h
DLD-1 colon = system: DLD-1 colon
DMS 273 small cell lung = system: DMS 273 small cell lung
HOP-18 NSCLC = system: HOP-18 NSCLC
KM20L2 colon = system: KM20L2 colon
LXFL 529 NSCLC = system: LXFL 529 NSCLC
M19-MEL melanoma = system: M19-MEL melanoma
SNB-78 CNS = system: SNB-78 CNS
XF 498 CNS = system: XF 498 CNS
RXF-631 renal = system: RXF-631 renal

SMILES	TGI (DLD-1 colon) [µM]	TGI (DMS 273 small cell lung) [µM]	TGI (HOP-18 NSCLC) [µM]	TGI (KM20L2 colon) [µM]	TGI (LXFL 529 NSCLC) [µM]	TGI (M19-MEL melanoma) [µM]	TGI (SNB-78 CNS) [µM]	TGI (XF 498 CNS) [µM]	TGI (RXF-631 renal) [µM]
C=CCC1(CN(C)C)CC/C(=C\c2ccc(Cl)cc2)C1=O (centres undefined)	> 94.4	> 59.1	> 100	> 67.4	> 74.8	> 92.7	> 72	> 100	–
C=C(C)C1CCC2(C)CC1c1c(c(C)cc3c1[nH]c1ccccc13)O2 (centres undefined)	> 25	> 25	–	> 25	> 25	> 25	–	> 25	–
COC(=O)[C@@]1(C)/C(=N/NS(=O)(=O)c2ccc(C)cc2)CCC[C@@H]1C	> 100	–	> 100	> 100	> 100	> 100	> 100	–	–
COc1ccc(OC)c(/C=C(/C#N)c2ccccc2)c1	> 100	24.5	> 100	> 100	> 100	> 100	–	–	–
COc1ccc(C(C#N)NNC(=O)Cc2ccccc2)cc1OC (centres undefined)	> 100	> 100	> 100	–	> 100	> 100	> 100	–	–
CC1(C)CC(=O)CC(=Nc2ccc([N+](=O)[O-])cc2)C1	49.6	> 100	> 100	> 100	> 100	> 100	> 100	> 100	> 100
O=[N+]([O-])c1ccc(-c2cnc3ccccn23)cc1	–	> 100	–	> 100	> 100	> 100	> 100	> 100	–
CC(C)=CC1CC(=[N+]=[N-])C(=O)C1(C)C (centres undefined)	> 100	–	> 100	> 100	> 100	> 100	> 100	> 100	–
O=C(CSc1c2ccccc2nc2ccccc12)Nc1ccccc1-c1ccccc1NC(=O)CSc1c2ccccc2nc2ccccc12	33.4	> 100	> 100	> 100	25.9	61.1	92.2	46.2	–
COc1ccc(/C=C(\C(C)=O)C(=O)Nc2ccccc2)cc1	> 100	–	> 100	–	> 100	> 100	> 100	–	–
C[N+](C)(C)CC1CCC/C1=N\OC(=O)c1ccccc1 (centres undefined)	> 100	–	> 100	> 100	> 100	> 100	> 100	> 100	–
CCOC1c2cc(C(C)C)c(O)c(O)c2[C@@]23CCCC(C)(C)C2C1OC3=O (some centres undefined)	> 100	> 100	–	> 100	> 100	> 100	> 100	–	–
C=CN1C(=O)[C@H](Oc2ccccc2)[C@@H]1c1ccccc1	> 100	–	> 100	> 100	> 100	> 100	> 100	84	–
COC(=O)C(C(=O)Cc1ccccc1[N+](=O)[O-])C(=O)OC	> 100	> 100	> 100	> 100	> 100	> 100	–	> 100	> 100
CCOC(=O)/C(=C/c1ccc(N(C)C)cc1)N(CC)CC	–	–	–	> 100	> 100	60.1	> 100	> 100	–
CCCCC/C=C1\CCC(CN(C)C)C1=O (centres undefined)	14.4	34	39.4	30.1	3.9	26.6	58.7	28.3	28.3
O=S(=O)(c1ccccc1)N1N=C2c3ccccc3CCC[C@H]2C1c1ccccc1 (some centres undefined)	> 100	> 100	> 100	> 100	> 100	> 100	> 100	> 100	–
CN(CCN(C)C(=O)CCn1cc(F)c(=O)[nH]c1=O)C(=O)CCn1cc(F)c(=O)[nH]c1=O	–	> 100	–	> 100	> 100	> 100	–	> 100	–
Cn1cnnc1Sc1c([N+](=O)[O-])ncn1C	> 100	> 100	82.5	–	63	–	> 100	> 100	> 100
